Reference: ChEMBL document CHEMBL5465560, “Selectivity Literature for EUbOPEN Chemogenomic Library” (2024)
Blank lines part the entries; values can stand above or below the compound they belong to.

What was measured:
[1] = test system: Tyrosine-protein kinase ABL1 (Homo sapiens), P00519 [H396P]; experiment: Selectivity interaction (KinomeScan (DiscoverX)) EUB0001049a ABL1; conditions: at 1 µM
[2] = molecular target: T1, Dual specificity tyrosine-phosphorylation-regulated kinase 3 (Homo sapiens) (UniProt O43781); experiment: Selectivity interaction (Kinase panel (Z-LYTE Assay)) EUB0001632a DYRK3; conditions: at 10 µM
T1 sequence (whole entry): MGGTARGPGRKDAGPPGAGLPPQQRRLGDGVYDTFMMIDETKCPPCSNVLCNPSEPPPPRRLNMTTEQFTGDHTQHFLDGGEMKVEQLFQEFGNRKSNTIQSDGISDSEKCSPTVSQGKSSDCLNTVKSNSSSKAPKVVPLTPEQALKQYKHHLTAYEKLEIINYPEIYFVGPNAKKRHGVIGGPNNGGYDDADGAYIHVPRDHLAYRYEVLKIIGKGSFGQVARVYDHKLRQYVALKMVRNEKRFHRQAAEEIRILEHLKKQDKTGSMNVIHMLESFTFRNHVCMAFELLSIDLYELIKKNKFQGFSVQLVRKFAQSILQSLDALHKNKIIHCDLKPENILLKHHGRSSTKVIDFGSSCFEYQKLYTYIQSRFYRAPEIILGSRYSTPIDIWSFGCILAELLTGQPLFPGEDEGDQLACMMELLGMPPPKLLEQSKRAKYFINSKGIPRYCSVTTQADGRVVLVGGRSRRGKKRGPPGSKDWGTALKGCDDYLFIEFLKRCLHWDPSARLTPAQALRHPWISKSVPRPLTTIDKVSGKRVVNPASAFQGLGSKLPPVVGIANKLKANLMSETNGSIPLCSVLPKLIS

[3] = test system: Tyrosine-protein kinase ABL1 (Homo sapiens), P00519 [F317I]; experiment: Selectivity interaction (KinomeScan (DiscoverX)) EUB0001079a ABL1; conditions: at 1 µM
[4] = molecular target: Mitogen-activated protein kinase 1 (Homo sapiens, UniProt P28482); experiment: Selectivity interaction (ProQinase) EUB0000171b MAPK1
Mitogen-activated protein kinase 1, sequence (P28482 whole entry): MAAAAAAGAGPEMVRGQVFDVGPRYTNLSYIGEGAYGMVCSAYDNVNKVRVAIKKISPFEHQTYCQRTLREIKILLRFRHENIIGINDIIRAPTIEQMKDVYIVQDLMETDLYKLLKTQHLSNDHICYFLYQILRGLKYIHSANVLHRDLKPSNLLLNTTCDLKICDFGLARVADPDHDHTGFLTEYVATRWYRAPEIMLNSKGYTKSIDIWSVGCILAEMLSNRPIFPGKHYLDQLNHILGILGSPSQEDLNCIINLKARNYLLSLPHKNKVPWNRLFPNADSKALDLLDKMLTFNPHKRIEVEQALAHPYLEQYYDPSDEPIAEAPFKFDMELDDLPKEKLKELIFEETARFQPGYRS

[5] = molecular target: T2, Dual specificity mitogen-activated protein kinase kinase 7 (Homo sapiens) (UniProt O14733); experiment: Selectivity interaction (ProQinase) EUB0000171b MAP2K7
T2 sequence (whole entry): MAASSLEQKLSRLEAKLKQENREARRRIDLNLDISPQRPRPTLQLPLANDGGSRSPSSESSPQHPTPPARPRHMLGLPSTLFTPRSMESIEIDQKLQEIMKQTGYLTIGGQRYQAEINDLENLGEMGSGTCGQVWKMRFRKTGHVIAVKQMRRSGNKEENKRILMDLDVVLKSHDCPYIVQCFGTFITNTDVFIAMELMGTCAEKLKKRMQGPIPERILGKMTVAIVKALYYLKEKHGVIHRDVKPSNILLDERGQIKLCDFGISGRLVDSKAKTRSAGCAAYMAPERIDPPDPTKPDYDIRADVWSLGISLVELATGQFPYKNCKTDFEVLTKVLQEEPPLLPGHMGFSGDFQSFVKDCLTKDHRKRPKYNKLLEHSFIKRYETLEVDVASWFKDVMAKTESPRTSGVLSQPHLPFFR

[6] = molecular target: T3, Peripheral plasma membrane protein CASK (Homo sapiens) (UniProt O14936); experiment: Selectivity interaction (KinomeScan (DiscoverX)) EUB0000655a CASK; conditions: at 10 µM
T3 sequence (whole entry): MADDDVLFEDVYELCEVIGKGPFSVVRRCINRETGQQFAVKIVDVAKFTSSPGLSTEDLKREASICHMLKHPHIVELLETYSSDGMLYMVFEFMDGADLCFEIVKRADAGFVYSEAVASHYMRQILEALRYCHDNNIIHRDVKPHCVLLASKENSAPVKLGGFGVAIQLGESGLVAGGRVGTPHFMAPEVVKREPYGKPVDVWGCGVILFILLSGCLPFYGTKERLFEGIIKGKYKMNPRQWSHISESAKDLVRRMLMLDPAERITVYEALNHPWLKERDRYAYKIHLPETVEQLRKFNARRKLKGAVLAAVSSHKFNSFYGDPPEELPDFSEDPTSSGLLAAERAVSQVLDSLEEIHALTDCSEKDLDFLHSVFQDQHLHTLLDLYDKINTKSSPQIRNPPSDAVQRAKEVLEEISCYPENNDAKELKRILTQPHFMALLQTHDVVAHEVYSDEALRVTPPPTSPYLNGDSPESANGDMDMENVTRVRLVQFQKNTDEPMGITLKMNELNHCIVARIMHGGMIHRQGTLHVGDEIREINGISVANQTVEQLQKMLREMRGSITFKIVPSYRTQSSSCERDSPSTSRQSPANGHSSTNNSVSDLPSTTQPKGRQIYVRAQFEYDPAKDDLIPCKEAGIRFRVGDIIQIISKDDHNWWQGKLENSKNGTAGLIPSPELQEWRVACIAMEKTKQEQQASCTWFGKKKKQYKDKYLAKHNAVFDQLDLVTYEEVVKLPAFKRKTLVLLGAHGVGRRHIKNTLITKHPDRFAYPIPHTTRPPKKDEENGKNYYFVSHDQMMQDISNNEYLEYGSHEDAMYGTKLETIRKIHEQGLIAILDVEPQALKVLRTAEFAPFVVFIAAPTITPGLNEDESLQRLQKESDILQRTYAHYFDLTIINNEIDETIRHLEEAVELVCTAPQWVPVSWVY

[7] = molecular target: BDNF/NT-3 growth factors receptor (Homo sapiens) (UniProt Q16620); experiment: Selectivity interaction (KinomeScan (DiscoverX)) EUB0000655a NTRK2; conditions: at 10 µM
BDNF/NT-3 growth factors receptor (Homo sapiens), sequence (Q16620 32-822 limits assumed): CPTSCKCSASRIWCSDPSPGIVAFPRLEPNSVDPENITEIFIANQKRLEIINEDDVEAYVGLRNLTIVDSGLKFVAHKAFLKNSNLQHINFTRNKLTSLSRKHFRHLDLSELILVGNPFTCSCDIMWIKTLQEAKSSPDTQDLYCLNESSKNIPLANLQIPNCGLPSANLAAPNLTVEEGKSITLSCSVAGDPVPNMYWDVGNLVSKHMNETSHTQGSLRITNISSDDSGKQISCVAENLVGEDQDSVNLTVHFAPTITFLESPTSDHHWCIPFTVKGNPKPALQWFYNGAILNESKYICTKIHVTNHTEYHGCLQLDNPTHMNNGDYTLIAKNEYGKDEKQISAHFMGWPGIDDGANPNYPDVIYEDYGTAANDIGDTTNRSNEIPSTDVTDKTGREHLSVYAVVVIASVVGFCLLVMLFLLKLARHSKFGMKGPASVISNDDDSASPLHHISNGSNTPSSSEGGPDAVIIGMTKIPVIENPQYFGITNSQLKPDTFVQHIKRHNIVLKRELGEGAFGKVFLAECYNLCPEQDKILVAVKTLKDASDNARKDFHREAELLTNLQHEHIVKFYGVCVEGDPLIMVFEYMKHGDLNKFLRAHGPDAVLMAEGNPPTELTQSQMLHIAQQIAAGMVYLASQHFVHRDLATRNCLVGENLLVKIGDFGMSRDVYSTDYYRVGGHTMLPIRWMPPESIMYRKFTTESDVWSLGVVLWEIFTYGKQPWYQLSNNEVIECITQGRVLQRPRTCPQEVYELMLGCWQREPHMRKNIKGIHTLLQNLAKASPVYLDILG

[8] = test system: Tyrosine-protein kinase ABL1 (Homo sapiens), P00519 [H396P]; experiment: Selectivity interaction (KinomeScan (DiscoverX)) EUB0000618a ABL1; conditions: at 10 µM

SMILES: COc1cc(Nc2nc(C)cc(-c3cnn4nc(OC)ccc34)n2)cc(C(F)(F)F)c1
% of control [1]: 73%

% of control [2]: 10.6%
SMILES: Cn1cc(-n2cnc3c(NCc4nc5cc(Cl)c(Cl)cc5[nH]4)nc(N4CCOCC4)nc32)cn1

SMILES: Nc1cnc(N2CCc3cc(S(=O)(=O)Nc4c(F)cc(Cl)cc4F)cc(N4CCCC4=O)c32)nc1 [TP-020n]
% of control [3]: 100%

% of control ([4]; at 1 µM): 96%
% of control ([4]; at 5 µM): 100%
% of control ([5]; at 1 µM): 45%
% of control ([5]; at 5 µM): 39%
SMILES: C=CC(=O)Nc1cccc(C(=O)Nc2ccc(Nc3cc(-c4[nH]c(SC)nc4C)ccn3)cc2)c1

SMILES: CN(C)CCOc1ccc(-c2nc(-c3ccncc3)c(-c3ccc4c(c3)CC/C4=N\O)[nH]2)cc1
% of control [6]: 82%
% of control [7]: 75%

SMILES: O[C@H]1CC[C@H](Nc2ncc3nc(Nc4c(F)cc(F)cc4F)n([C@H]4CCOC4)c3n2)CC1
% of control [8]: 31%
